Data on 24 compounds can be found in US5521196A, “5-HT1F agonists for the treatment of migraine” (Eli Lilly and Company, priority 1994, dated 1996).

What is called Ki is the dissociation constant of the complex between target and ligand, obtained from inhibition or displacement.

Where a name gives a salt, the structure may show the parent alone.

One experiment relates to protein extravasation in the dura from stimulation of the trigeminal ganglion.
Experiment: not given
The note with it: iv.
Turning to `CNS(=O)(=O)Cc1ccc2[nH]cc(CCN(C)C)c2c1.O=C(O)CCC(=O)O` [Compound I, 3-[2-(dimethylamino)ethyl]-N-methyl-1H-indole-5-methanesulfonamide butane-1,4-dioate (1:1)], the “Inhibition of Protein Extravasation, i.v. ID50” value worked out at 2.6e-08 nmol/kg. Consider `CCN(CC)C1CCc2cccc(Cl)c2C1.Cl` (stereo not drawn) [Compound IV, 8-chloro-2-diethylamino-1,2,3,4-tetrahydronaphthalene hydrochloride], for which the “Inhibition of Protein Extravasation, i.v. ID50” value was 1.2e-07 nmol/kg.

The next experiment has as its system neurogenic inflammation.
Experiment: not given
The note with it: in vivo; cited from earlier work.
As for `CNS(=O)(=O)Cc1ccc2[nH]cc(CCN(C)C)c2c1.O=C(O)CCC(=O)O` [Compound I, 3-[2-(dimethylamino)ethyl]-N-methyl-1H-indole-5-methanesulfonamide butane-1,4-dioate (1:1)], the “block of neurogenic inflammation” value is recorded as “blocked”.

A further experiment relates to cephalic vascular smooth muscle.
Experiment: not given
The note with it: cited from earlier work.
`CNS(=O)(=O)Cc1ccc2[nH]cc(CCN(C)C)c2c1.O=C(O)CCC(=O)O` [Compound I, 3-[2-(dimethylamino)ethyl]-N-methyl-1H-indole-5-methanesulfonamide butane-1,4-dioate (1:1)]: the “contraction of cephalic vascular smooth muscle” value is reported as “contract cephalic vascular smooth muscle”.

For the next experiment, the target named is T1, 5-HT1F receptor (Homo sapiens, UniProt P30939).
T1 sequence (P30939 1-366): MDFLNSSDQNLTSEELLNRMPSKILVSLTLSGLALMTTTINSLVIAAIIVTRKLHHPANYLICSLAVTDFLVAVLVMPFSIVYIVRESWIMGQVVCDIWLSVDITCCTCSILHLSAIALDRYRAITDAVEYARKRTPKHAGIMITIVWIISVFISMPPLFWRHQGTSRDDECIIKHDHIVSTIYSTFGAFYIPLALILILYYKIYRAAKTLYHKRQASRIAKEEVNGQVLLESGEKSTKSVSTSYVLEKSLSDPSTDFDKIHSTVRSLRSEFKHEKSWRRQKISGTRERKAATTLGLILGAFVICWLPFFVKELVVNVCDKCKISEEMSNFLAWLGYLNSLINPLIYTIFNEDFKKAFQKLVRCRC
As to the kind of experiment: biochemical. The note with it: Table I; displacement of 4.5-5.5 nM [3H]5-HT, 37° C., 30 minutes; read-out: 5-HT1F BINDING Ki.
On to `Clc1ccc(-n2cc(CCN3CCC(c4c[nH]c5ccc(Cl)cc45)CC3)cn2)cc1` [Example 34, 5-chloro-3-<1-<2-<1-(4-chlorophenyl)-1H-pyrazol-4-yl>ethyl>-4-piperidinyl>- 1H-indole], for which the inhibition constant (Ki) turned out to be 161 nM. On to `Clc1ccc2[nH]cc(C3CCN(CCc4cnn(-c5ccccc5Br)c4)CC3)c2c1` [Example 35, 5-chloro-3-<1-<2-<1-(2-bromophenyl)-1H-pyrazol-4-yl>ethyl>-4-piperidinyl>-1H-indole oxalate], for which the Ki stood at 48.4 nM. In the case of `Clc1ccc2[nH]cc(C3CCN(CCc4cnn(-c5cccc(Br)c5)c4)CC3)c2c1` [Example 36, 5-chloro-3-<1-<2-<1-(3-bromophenyl)-1H-pyrazol-4-yl>ethyl>-4-piperidinyl>-1H-indole oxalate], the Ki amounted to 142 nM. In the case of `Clc1ccc2[nH]cc(C3CCN(CCc4cnn(-c5ccc(Br)cc5)c4)CC3)c2c1` [Example 37, 5-chloro-3-<1-<2-<1-(4-bromophenyl)-1H-pyrazol-4-yl>ethyl>-4-piperidinyl>-1H-indole], the inhibition constant (Ki) was 65.6 nM. On to `Clc1ccc2[nH]cc(C3CCN(CCc4cnn(-c5ccc(I)cc5)c4)CC3)c2c1` [Example 38, 5-chloro-3-<1-<2-<1-(4-iodophenyl)-1H-pyrazol-4-yl>ethyl>-4-piperidinyl>-1H-indole oxalate], for which the inhibitory constant (Ki) was 77.4 nM. On the same count and under the same terms, then `COc1ccccc1-n1cc(CCN2CCC(c3c[nH]c4ccc(Cl)cc34)CC2)cn1` [Example 39, 5-chloro-3-<1-<2-<1-(2-methoxyphenyl)-1H-pyrazol-4-yl>ethyl>-4-piperidinyl>-1H-indole oxalate], with 63.5 nM; and `COc1ccc(-n2cc(CCN3CCC(c4c[nH]c5ccc(Cl)cc45)CC3)cn2)cc1` [Example 40, 5-chloro-3-<1-<2-<1-(4-methoxyphenyl)-1H-pyrazol-4-yl>ethyl>-4-piperidinyl>-1H-indole], with 12.7 nM; and `Cc1ccccc1-n1cc(CCN2CCC(c3c[nH]c4ccc(Cl)cc34)CC2)cn1` [Example 41, 5-chloro-3-<1-<2-<1-(2-methylphenyl)-1H-pyrazol-4-yl>ethyl>-4-piperidinyl>- 1H-indole oxalate], with 153 nM. Turning to `Cc1cccc(-n2cc(CCN3CCC(c4c[nH]c5ccc(Cl)cc45)CC3)cn2)c1` [Example 42, 5-chloro-3-<1-<2-<1-(3-methylphenyl)-1H-pyrazol-4-yl>ethyl>-4-piperidinyl>- 1H-indole oxalate], the Ki is 43.2 nM.

As for `Cc1ccc(-n2cc(CCN3CCC(c4c[nH]c5ccc(Cl)cc45)CC3)cn2)cc1` [Example 43, 5-chloro-3-<1-<2-<1-(4-methylphenyl)-1H-pyrazol-4-yl>ethyl>-4-piperidinyl>- 1H-indole], the inhibitory constant (Ki) was 37.7 nM.

On to `Fc1ccc2[nH]cc(C3CCN(CCc4cc[nH]c4)CC3)c2c1` [Example 44, 5-fluoro-3-<1-<2-<1H-pyrrol-3-yl>ethyl>-4-piperidinyl>-1H-indole oxalate], for which the inhibition constant Ki was determined as 53.9 nM. The same measure, in the same setting: then `Fc1ccc2[nH]cc(C3CCN(CCc4ccccn4)CC3)c2c1` [Example 45, 5-fluoro-3-<1-<2-<pyridin-2-yl>ethyl>-4-piperidinyl>-1H-indoledihydrochloride], with 27 nM. Turning to `Fc1ccc2[nH]cc(C3CCN(CCc4ccncc4)CC3)c2c1` [Example 46, 5-fluoro-3-<1-<2-<pyridin-4-yl>ethyl>-4-piperidinyl>-1H-indoledihydrochloride], the inhibitory constant (Ki) was 5.3 nM.

For `Fc1ccc2[nH]cc(C3CCN(CCc4cccnc4)CC3)c2c1` [Example 47, 5-fluoro-3-<1-<2-<pyridin-3-yl>ethyl>-4-piperidinyl>-1H-indolehydrochloride monohydrate], the inhibitory constant (Ki) was found to be 115 nM.

For `Fc1ccc2[nH]cc(C3CCN(CCc4cn[nH]c4)CC3)c2c1` [Example 48, 5-fluoro-3-<1-<2-<1H-pyrazol-4-yl>ethyl>-4-piperidinyl>-1H-indoledihydrochloride], the Ki was found to be 8.1 nM. In the case of `Cn1cc(CCN2CCC(c3c[nH]c4ccc(O)cc34)CC2)cn1` [Example 49, 5-hydroxy-3-<1-<2-<1-methyl-1H-pyrazol-4-yl>ethyl>-4-piperidinyl>-1H-indoleoxalate], the Ki was 1.4 nM. Turning to `CC(C)n1cc(CCN2CCC(c3c[nH]c4ccc(O)cc34)CC2)cn1` [Example 50, 5-hydroxy-3-<1-<2-<1-(1-methylethyl)-1H-pyrazol-4-yl>ethyl>-4-piperidinyl>-1H-indole], the Ki came out at 2.3 nM. Same read-out and setting: then `Oc1ccc2[nH]cc(C3CCN(CCc4cnn(C5CCCCC5)c4)CC3)c2c1` [Example 51, 5-hydroxy-3-<1-<2-<1-cyclohexyl-1H-pyrazol-4-yl>ethyl>-4-piperidinyl>-1H-indole oxalate], with 4.4 nM. The same measure, in the same setting: then `Oc1ccc2[nH]cc(C3CCN(CCc4cnn(-c5ccccc5)c4)CC3)c2c1` [Example 52, 5-hydroxy-3-<1-<2-<1-phenyl-1H-pyrazol-4-yl>ethyl>-4-piperidinyl>-1H-indole], with 2.4 nM; and `CCCn1cc(CCN2CCC(c3c[nH]c4ccc(O)cc34)CC2)cn1` [Example 53, 5-hydroxy-3-<1-<2-<1-propyl-1H-pyrazol-4-yl>ethyl>-4-piperidinyl>-1H-indole], with 1.1 nM. `Clc1ccc2[nH]cc(C3CCN(CCCc4cn[nH]c4)CC3)c2c1` [Example 54, 5-chloro-3-<1-<3-<1H-pyrazol-4-yl>propyl>-4-piperidinyl>-1H-indole oxalate]: the Ki was found to be 42 nM. Same read-out and setting: next, `CC(C)n1cc(CCN2CC=C(c3c[nH]c4ccc(Cl)cc34)CC2)cn1` [Example 55, 5-chloro-3-<1,2,3,6-tetrahydro-1-<2-<1-(1-ethylmethyl)-1H-pyrazol-4-yl>ethyl>-4-pyridinyl>-1H-indole]: 7.4 nM.

System in the next experiment: not given
Experiment: not given
The note with it: in vivo; cited from earlier work.
For `CNS(=O)(=O)Cc1ccc2[nH]cc(CCN(C)C)c2c1.O=C(O)CCC(=O)O` [Compound I, 3-[2-(dimethylamino)ethyl]-N-methyl-1H-indole-5-methanesulfonamide butane-1,4-dioate (1:1)], the “effectiveness in the treatment of migraine” value is “effective in the treatment of migraine”.
